From patent US20220313651A1, “INHIBITORS OF ZIKA VIRUS INFECTION” (priority 2019, published 2022)
Like-named read-outs stand apart in the source and are kept apart here.

How the values were obtained:
[1] = tested on: ZIKV human strain PLCal_ZV (2013/Thailand); test: Plaque reduction inhibition assay in Vero E6 cells, ZIKV PLCal_ZV; assay type: cell-based, Zika virus (ZIKV)
Method: (§1) A plaque reduction inhibition assay was carried out to measure the inhibitory activity of Z-medicaments against infections of ZIKV and DENV. […] The compound-virus mixtures were then transferred to Vero E6 cells (10^5/well) and incubated at 37° C. for 1 h.

[2] = tested on: ZIKV human strain FLR (2015/Colombia); test: Plaque reduction inhibition assay in Vero E6 cells, ZIKV FLR; assay type: cell-based, Zika virus (ZIKV)
Method: as §1

ZIKV PAN2016 strain = test: Combinatorial effects of gossypol with other Z-medicaments, ZIKV PAN2016; assay type: cell-based, Zika virus (ZIKV); conditions: for Fold of Enhancement / CI (combination index): ZIKV PAN2016; for Fold of Enhancement: IC50 alone / in mixture; for CI (combination index): named compound in combination with gossypol
Method: The unbound viruses and Z-medicaments were removed, and the cells were cultured at 37° C. for 4-5 days, followed by staining with 0.5% crystal violet. The Z-medicaments without combinations were used as controls. The IC50 of the Z-medicaments was calculated as described above.
The Z-medicaments were then analyzed for synergistic effects based on the combination index (CI) and IC50 values using the CalcuSyn program. Specifically, CI values <1 and >1 indicate synergy and antagonism, respectively. Synergy was further identified as five different categories: CI values <0.1, 0.1-0.3, 0.3-0.7, 0.7-0.85, and 0.85-0.90 indicate very strong synergism, strong synergism, synergism, moderate synergism, and slight synergism, respectively. Fold enhancement of anti-ZIKV potency is expressed as the ratio of molar concentrations of the Z-medicaments tested alone and in the mixture.

Vero E6 cells = test: in vitro
Method: The cytotoxicity of the Z-medicaments in Vero E6 (ZIKV target cells) was evaluated using the Cell Counting Kit-8 (CCK8).
Briefly, compounds at 2-fold serial dilutions were added to cells (2.0×10^4/well) pre-seeded in 96-well plates. The cells were cultured at 37° C. for 3 days, and incubated with CCK8 solution, followed by measurement of absorbance at 450 nm (A450 value) using microplate reader.

[3] = tested on: ZIKV human strain R103451 (2015/Honduras); test: Plaque reduction inhibition assay in Vero E6 cells, ZIKV R103451; assay type: cell-based, Zika virus (ZIKV)
Method: as §1

ZIKV (PAN2016) = test: Time-of-addition experiment, ZIKV PAN2016 in Vero E6 cells; assay type: cell-based, Zika virus (ZIKV); conditions: for Inhibition of ZIKV infection, attachment: ZIKV and compound at 4° C. 1 h; for Inhibition of ZIKV infection, pretreatment of ZIKV: virus incubated with compound 37° C. 1 h before cells; for Inhibition of ZIKV infection, pretreatment of cells: cells incubated with compound 37° C. 1 h before ZIKV; for Inhibition of ZIKV infection, penetration (membrane fusion): cells with ZIKV at 4° C. 1 h; for Inhibition of ZIKV infection, penetration (membrane fusion) / Inhibition of ZIKV infection, post-entry stage: then compound 37° C. 1 h; for Inhibition of ZIKV infection, post-entry stage: cells with ZIKV at 37° C. 1 h; for inhibition at 7.5 µM: Zika virus
Method: FIG. 2A-K depicts a time-of-addition experiment to test the ability of the disclosed compounds to block ZIKV infection at different steps of the viral life cycle. […] FIG. 2B: Pretreatment of cells: cells were pre-incubated with one of the compounds at 37° C. for 1 h, and the unbound compounds were then removed, followed by addition of ZIKV and incubation of cells at 37° C. for 1 h. After removal of the unbound ZIKV, the cells were cultured and plaques and inhibition rate determined as in FIG. 2A. FIG. 2C: Blockage of ZIKV attachment: cells were incubated with ZIKV at 4° C. for 1 h (to allow ZIKV attachment but not fusion between ZIKV and cell membranes) in the presence of one of the compounds. After removal of the unbound ZIKV and compounds, the cells were cultured and plaques and inhibition rate determined. […] FIG. 2E: Blockage of ZIKV penetration (membrane fusion): cells were incubated with ZIKV at 4° C. for 1 h to allow ZIKV attachment. After removal of the unbound ZIKV, the cells were incubated with one of the compounds at 37° C. for 1 h to allow fusion of virus-cell membranes. After further removal of the unbound compounds, the cells were cultured and plaques and inhibition rate determined. FIG. 2F: Inhibition of post-entry stage: cells were incubated with ZIKV at 37° C. for 1 h (to allow ZIKV entry into the target cells). […] The percent inhibition was calculated based on the numbers of plaques in the presence or absence of serially diluted compounds. The data are expressed as mean±s.e.m. (n=2). The experiments were repeated three times with similar results.
Time-of-addition experiments were performed in Vero E6 cells, and six specific steps are shown as follows. 1) Step 1: Pretreatment of virus. […] After removal of the unbound compounds, ZIKV was incubated with cells at 37° C. for 1 h, followed by culturing cells at 37° C. for 4-5 days, and enumerating plaques. 2) Step 2: Pretreatment of cells. […] The unbound ZIKV was removed, and the cells were cultured and plaques enumerated as in Step 1. 3) Step 3: Attachment. […] After removal of the unbound ZIKV and compounds, the cells were cultured and plaques enumerated as in Step 1. 4) Step 4: Co-treatment. […] After removal of the unbound viruses and compounds, the cells were cultured and plaques enumerated as in Step 1. 5) Step 5: Fusion. Cells were incubated with ZIKV at 4° C. for 1 h for ZIKV attachment. […] The unbound compounds were removed, and the cells were cultured and plaques enumerated as in Step 1. 6) Step 6: Post-entry. Cells were incubated with ZIKV at 37° C. for 1 h for ZIKV entry. […] The unbound compounds were then removed, and the cells were cultured and enumerated for plaques as in Step 1. The data are expressed as mean % inhibition±s.e.m. (n=2). The percent inhibition was calculated based on the numbers of plaques in the presence or absence of the compounds. The experiments were repeated three times with similar results.
Time-of-addition experiments. were performed to identify mechanisms of the Z-medicaments against ZIKV infection. […] Specifically, the following six stages of ZIKV infection were tested: (a) Pretreatment of ZIKV (PAN2016, ˜2.5×10^3 PFU) with the Z-medicaments at 37° C. for 1 h before incubation with cells; (b) Pretreatment of cells with the Z-medicaments at 37° C. for 1 h before incubation with ZIKV (PAN2016, ˜100 PFU); (c) Co-treatment of cells, ZIKV (PAN2016, ˜300 PFU) and the Z-medicaments at 4° C. for 1 h; (d) Co-treatment of cells, ZIKV (PAN2016, ˜100 PFU) and the Z-medicaments at 37° C. for 1 h; (e) Pre-incubation of cells with ZIKV (PAN2016, ˜300 PFU) at 4° C. for 1 h and then incubation with the Z-medicaments at 37° C. for 1 h; and (f) Pre-incubation of ZIKV (PAN2016, ˜100 PFU) and cells at 37° C. for 1 h, followed by incubation with the Z-medicaments at 37° C. for 1 h. […]

[4] = Zika virus, Vero C1008, Vero E6 cells, Table 1, read-out: IC50 against ZIKV strain PLCal_ZV
[5] = Zika virus, Vero C1008, Vero E6 cells, Table 1, read-out: IC50 against ZIKV strain FLR
[6] = Zika virus, Vero C1008, Vero E6 cells, Table 1, read-out: IC50 against ZIKV strain R103451
[7] = co-treatment of cells, gossypol 15 μM, curcumin 30 μM, digitonin 7.5 μM, conessine 30 μM, ST087010 15 μM
[8] = gossypol 15 μM, curcumin 30 μM, digitonin 7.5 μM, conessine 30 μM, ST087010 15 μM
[9] = Vero E6 cells, 3 days, CCK8, Table 1

Question: For `Cc1cc2c(C(C)C)c(O)c(O)c(C=O)c2c(O)c1-c1c(C)cc2c(C(C)C)c(O)c(O)c(C=O)c2c1O` [Gossypol, gossypol], which IC50 [1, 4] is on record?
Answer: 1.98 ± 0.07 µM

Question: What about the IC50 ([1]; Zika virus, Vero C1008, read-out: ZIKV strains IC50, PLCal_ZV) of the same molecule?
Answer: 2.88 ± 0.19 µM

Question: What about the IC50 [2, 5] of the same molecule?
Answer: 0.21 ± 0.01 µM

Question: And the IC50 ([2]; Zika virus, Vero C1008, read-out: ZIKV strains IC50, FLR)?
Answer: 0.73 ± 0.07 µM

Question: What about the IC50 (ZIKV PAN2016 strain; Zika virus, Vero C1008, read-out: IC50 Alone) of the same molecule?
Answer: 3.79 ± 0.01 µM

Question: And the CC50 (Vero E6 cells; African green monkey, 3 days)?
Answer: 14.2 ± 0.74 µM

Question: And the IC50 [3, 6]?
Answer: 2.28 ± 0.1 µM

Question: What about the IC50 ([3]; Zika virus, Vero C1008, read-out: ZIKV strains IC50, R103451) of the same molecule?
Answer: 3.12 ± 0.38 µM

Question: How did the “Inhibition of ZIKV infection, attachment” value (ZIKV (PAN2016); [7]) turn out when `C[C@H]1[C@H]2CC[C@H]3[C@@H]4CC=C5C[C@@H](N(C)C)CC[C@]5(C)[C@H]4CC[C@]23CN1C` [Conessine, conessine] was run?
Answer: very low, to no, effects

Question: What about the “Inhibition of ZIKV infection, pretreatment of ZIKV” value (from here on “Inhibition … pretreatment of ZIKV”) (ZIKV (PAN2016); [8]) of the same molecule?
Answer: very low, to no, effects

Question: And the “Fold of Enhancement” value (ZIKV PAN2016 strain; gossypol + conessine)?
Answer: 4.44

Question: And the “CI (combination index)” value (ZIKV PAN2016 strain)?
Answer: 0.44

Question: Which “Inhibition of ZIKV infection, pretreatment of cells” value (ZIKV (PAN2016); [8]) does the source give for `COc1cc(/C=C/C(=O)CC(=O)/C=C/c2ccc(O)c(OC)c2)ccc1O` [Curcumin, curcumin] here?
Answer: low to no impact

Question: What about the “Inhibition of ZIKV infection, penetration (membrane fusion)” value (ZIKV (PAN2016); [8]) of the same molecule?
Answer: low to no impact

Question: And the “Inhibition of ZIKV infection, post-entry stage” value (ZIKV (PAN2016); [8])?
Answer: low to no impact

Question: And the “Fold of Enhancement” value (ZIKV PAN2016 strain; gossypol + curcumin)?
Answer: 3.60

Question: And the “CI (combination index)” value (ZIKV PAN2016 strain)?
Answer: 0.52

Question: And the CC50 (Vero E6 cells; [9])?
Answer: 52.86 ± 0.52 µM

Question: With `Cc1cc2c(C(C)C)c(O)c(O)c(/C=N/n3c(=O)[nH][nH]c3=O)c2c(O)c1-c1c(C)cc2c(C(C)C)c(O)c(O)c(/C=N/n3c(=O)[nH][nH]c3=O)c2c1O` [ST087010] as the molecule, how does the “Inhibition of ZIKV infection, pretreatment of cells” value (ZIKV (PAN2016); [8]) read?
Answer: no or little

Question: What about the “Inhibition of ZIKV infection, penetration (membrane fusion)” value (ZIKV (PAN2016); [8]) of the same molecule?
Answer: no or little

Question: What about the “Inhibition of ZIKV infection, post-entry stage” value (ZIKV (PAN2016); [8]) of the same molecule?
Answer: < 20%

Question: What about the “Inhibition of ZIKV infection, attachment” value (ZIKV (PAN2016); [7]) of the same molecule?
Answer: < 40%

Question: What about the “Inhibition of ZIKV infection, co-treatment of ZIKV and cells” value (ZIKV (PAN2016); co-treatment of cells, ZIKV and compound at 37° C. 1 h, gossypol 15 μM, curcumin 30 μM, digitonin 7.5 μM, conessine 30 μM, ST087010 15 μM) of the same molecule?
Answer: no or little

Question: What about the “Inhibition … pretreatment of ZIKV” value (ZIKV (PAN2016); [8]) of the same molecule?
Answer: almost completely inhibited

Question: What about the IC50 ([1]; Vero E6 cells, Table 7, gossypol derivatives, read-out: ZIKV strains IC50, PLCal_ZV) of the same molecule?
Answer: 2.21 ± 0.08 µM

Question: And the IC50 ([2]; Vero E6 cells, Table 7, gossypol derivatives, read-out: ZIKV strains IC50, FLR)?
Answer: 2.76 ± 0.1 µM

Question: And the “CC50 relative to that of gossypol” value (Vero E6 cells; Vero E6 cells)?
Answer: about 3.5 fold

Question: What about the CC50 (Vero E6 cells; Vero E6 cells, Table 7, gossypol derivatives) of the same molecule?
Answer: 49.6 ± 1.83 µM

Question: And the IC50 ([3]; Vero E6 cells, Table 7, gossypol derivatives, read-out: ZIKV strains IC50, R103451)?
Answer: 3.6 ± 0.07 µM

Question: With `C[C@@H]1CC[C@@]2(OC1)O[C@H]1[C@@H](O)[C@H]3[C@@H]4CC[C@H]5C[C@@H](O[C@@H]6O[C@H](CO)[C@H](O[C@@H]7O[C@H](CO)[C@@H](O)[C@H](O[C@@H]8OC[C@@H](O)[C@H](O)[C@H]8O)[C@H]7O[C@@H]7O[C@H](CO)[C@H](O)[C@H](O[C@@H]8O[C@H](CO)[C@@H](O)[C@H](O)[C@H]8O)[C@H]7O)[C@H](O)[C@H]6O)[C@H](O)C[C@]5(C)[C@H]4CC[C@]3(C)[C@H]1[C@@H]2C` [Digitonin, digitonin] as the molecule, how does the inhibition at 7.5 µM (ZIKV (PAN2016); Vero C1008, 1 h, read-out: Inhibition of ZIKV infection, penetration (membrane fusion)) read?
Answer: 49 to 74%

Question: What about the inhibition at 7.5 µM (ZIKV (PAN2016); Vero C1008, 1 h, read-out: Inhibition of ZIKV infection, post-entry stage) of the same molecule?
Answer: 49 to 74%

Question: What about the inhibition at 7.5 µM (ZIKV (PAN2016); Vero C1008, read-out: Inhibition of ZIKV infection, pretreatment of cells) of the same molecule?
Answer: ≥ 94%

Question: What about the “Inhibition … pretreatment of ZIKV” value (ZIKV (PAN2016); [8]) of the same molecule?
Answer: no effects

Question: What about the IC50 [1, 4] of the same molecule?
Answer: 3.19 ± 0.25 µM

Question: And the IC50 [2, 5]?
Answer: 3.34 ± 0.22 µM

Question: And the “Fold of Enhancement” value (ZIKV PAN2016 strain; gossypol + digitonin)?
Answer: 3.21

Question: What about the “CI (combination index)” value (ZIKV PAN2016 strain) of the same molecule?
Answer: 0.60

Question: And the CC50 (Vero E6 cells; [9])?
Answer: 56.3 ± 1.2 µM

Question: What about the IC50 [3, 6] of the same molecule?
Answer: 4.3 ± 0.43 µM
